From patent US20250312303A1, “ANTICANCER AGENT” (AGC Inc., priority 2022, published 2025)
Where “and” joins values, the source holds several entries; their conditions need not be identical. Equal entries are not always repeated.

Key:
HeLa cells [1] = experiment: Tumor volume of subcutaneously transplanted HeLa cells in SCID/SCID mice; type: in vivo
Description: First, 0.1 mL samples of an HeLa cell solution with a concentration of 1.0×10^7 cells/mL were transplanted beneath the skin of SCID/SCID (immunodeficient) mice. Starting 7 days after the HeLa cell transplantation, PBS (control group), leucine (5 mg/kg mouse bodyweight) or trifluoroleucine (5 mg/kg mouse bodyweight) was administered intraperitoneally every day for two weeks. The growth of the tumor tissue was observed over time from the time of HeLa transplantation, and the tumor volume (mm^3) was calculated. The tumor volume (mm^3) was calculated from the major diameter (mm) of the tumor tissue and the minor diameter (mm) of the tumor tissue using the formula shown below.
With the exceptions of using monofluoroisoleucine or 5-fluoro-5-methyl-norleucine (CAS RN: 1361228-49-0) instead of the trifluoroleucine, and starting the administration of the PBS, 5-fluoro-5-methyl-norleucine or monofluoroisoleucine 11 days after rather than 7 days after the HeLa cell transplantation, the same procedure as (1) above was used to measure the volume (mm^3) of the tumor formed by the subcutaneously transplanted HeLa cells over time.
(§1) First, 0.1 mL samples of an HeLa cell solution with a concentration of 1.0×10^7 cells/mL were transplanted beneath the skin of SCID/SCID (immunodeficient) mice. Starting 7 days after the HeLa cell transplantation, PBS (control group), glutamine (Gln) (5 mg/kg mouse bodyweight), (2S,4S)Gln(1F) (5 mg/kg mouse bodyweight) or (2S,4R)Gln(1F) (5 mg/kg mouse bodyweight) was administered intraperitoneally every day for two weeks. The growth of the tumor tissue was observed over time from the time of HeLa cell transplantation, and the tumor volume (mm^3) was calculated. The tumor volume (mm^3) was determined in the same manner as that described in Example 2.
as §1, with “mouse bodyweight), or di-F-Gln(F)” for “mouse bodyweight), (2S,4S)Gln(1F) (5 mg/kg mouse bodyweight) or (2S,4R)Gln(1F)”, “bodyweight), or di-F-Gln(F) (5 mg/kg” for “bodyweight) or (2S,4R)Gln(1F) (5 mg/kg”, “of HeLa transplantation, and” for “of HeLa cell transplantation, and”

HeLa cells [2] = experiment: SRB assay, relative cell proliferation rate of HeLa cells; type: cell-based
From the text: (§2) HeLa cells and PANC-1 cells were used as the cancer cells. Both these cells were obtained from ATCC. Further, NHDF cells obtained from Lonza Group Ltd. were used as control non-cancer cells. The culture mediums used were Dulbecco's Modified Eagle Medium (D-MEM, manufactured by FUJIFILM Wako Pure Chemical Corporation) to which 10% FBS had been added (hereinafter also referred to as the “normal medium”), a medium prepared by removing leucine from D-MEM and adding 10% FBS (hereinafter also referred to as the “Leu-removed medium”), and a medium prepared by removing valine from D-MEM and adding 10% FBS (hereinafter also referred to as the “Val-removed medium”).
(§3) The culture cells were inoculated into a 96-well culture plate at a concentration of 3×10^3 cells/well, and following adhesion, were cultured for 24, 48 or 72 hours in the normal medium, the Leu-removed medium or Val-removed medium, or a medium prepared by adding the fluorine-containing amino acid to the Leu-removed medium or Val-removed medium in an amount sufficient to achieve a final concentration of 0.8 mM. Following culturing, the cell proliferation rate was measured by SRB assay. As a control, the cell proliferation rate was measured in a similar manner for cells having a culture time of 0 hours.
(§4) The SRB assays were conducted in the following manner. Following cell culturing, the medium was removed, and 10% (wt/vol) of trichloroacetic acid was added to fix the cells. Subsequently, the fixed cells were washed three times with tap water, and then stained by adding a solution containing 0.4% (wt/vol) of sulforhodamine B dissolved in 1% acetic acid. Following subsequent washing three times with a 1% acetic acid solution, a 10 mM Tris solution was added, and the light absorbance at 540 nm was measured. The 540 nm absorbance value for each sample was used to indicate the cell quantity, and for each sample, the relative cell proliferation rate (%) at a culture time of X hours was determined using the formula below.
(§5) SRB assays were conducted in the same manner as Example 1 with the exceptions of using a medium prepared by removing glutamine from D-MEM and adding 10% FBS (hereinafter also referred to as the “Gln-removed medium”) as the culture medium instead of the Leu-removed medium, using monofluoroglutamine ((2S,4S)Gln(1F) or (2S,4R)Gln(1F)) as the fluorine-containing amino acid, and altering the amount of monofluoroglutamine added to the Gln-removed medium to an amount sufficient to achieve a final concentration of 4 mM.
(§6) SRB assays were conducted in the same manner as Example 1 with the exceptions of using the Gln-removed medium as the culture medium instead of the Leu-removed medium, using difluoroglutamine as the fluorine-containing amino acid, and altering the amount of difluoroglutamine added to the Gln-removed medium to an amount sufficient to achieve a final concentration of 4 mM.

PANC-1 cells = experiment: SRB assay, relative cell proliferation rate of PANC-1 cells; type: cell-based
From the text: as §2, §3, §4, §5, §6

NHDF cells = experiment: SRB assay, relative cell proliferation rate of NHDF cells (control non-cancer cells); type: cell-based
From the text: as §2, §3, §4, §5

[3] = 5 mg/kg intraperitoneally every day for two weeks starting day 7, 7 days since HeLa cell transplantation
[4] = 5 mg/kg intraperitoneally every day for two weeks starting day 7, 14 days since HeLa cell transplantation
[5] = 5 mg/kg intraperitoneally every day for two weeks starting day 7, 21 days since HeLa cell transplantation
[6] = Val-removed medium + 0.8 mM amino acid, culture time 24 h
[7] = Val-removed medium + 0.8 mM amino acid, culture time 48 h
[8] = Val-removed medium + 0.8 mM amino acid, culture time 72 h
[9] = Val-removed medium + 0.8 mM amino acid, culture time 72 h, listed as monofluorovaline
[10] = Val-removed medium + 0.8 mM amino acid, culture time 72 h, listed as hexafluorovaline
[11] = Leu-removed medium + 0.8 mM amino acid, culture time 24 h
[12] = Leu-removed medium + 0.8 mM amino acid, culture time 48 h
[13] = Leu-removed medium + 0.8 mM amino acid, culture time 72 h, hydrochloride
[14] = Leu-removed medium + 0.8 mM amino acid, culture time 72 h

NC(=O)CC[C@H](N)C(=O)O [Gln, glutamine, reference compound]
Tumor volume (HeLa cells [1]; [3]): 76.0 mm^3 and 97.3 mm^3 | Tumor volume (HeLa cells [1]; 5 mg/kg intraperitoneally every day for two weeks starting day 7, 9 days since HeLa cell transplantation): 134.7 mm^3 and 259.1 mm^3 | Tumor volume (HeLa cells [1]; 5 mg/kg intraperitoneally every day for two weeks starting day 7, 11 days since HeLa cell transplantation): 215.4 mm^3 and 341.0 mm^3 | Tumor volume (HeLa cells [1]; [4]): 488.0 mm^3 and 721.9 mm^3 | Tumor volume (HeLa cells [1]; 5 mg/kg intraperitoneally every day for two weeks starting day 7, 16 days since HeLa cell transplantation): 734.1 mm^3 and 1094.6 mm^3 | Tumor volume (HeLa cells [1]; 5 mg/kg intraperitoneally every day for two weeks starting day 7, 18 days since HeLa cell transplantation): 939.6 mm^3 and 1348.3 mm^3 | Tumor volume (HeLa cells [1]; [5]): 1256.0 mm^3 and 1849.5 mm^3 | Increase in the size of the tumor tissue compared with the control group (HeLa cells [1]; HeLa tumor-bearing SCID/SCID mice, 5 mg/kg intraperitoneally every day for two weeks, result in words): even larger than the control group

CC(C(N)C(=O)O)C(F)(F)F (stereo not drawn) [Val(3F), 2-amino-3-methyl-4,4,4-trifluorobutanoic acid]
Relative cell proliferation rate of HeLa cells (HeLa cells [2]; [6]): 151.7% | Relative cell proliferation rate of HeLa cells (HeLa cells [2]; [7]): 287.6% | Relative cell proliferation rate of HeLa cells (HeLa cells [2]; [8]): 494.3% | Relative cell proliferation rate of PANC-1 cells (PANC-1 cells; [6]): 108.9% | Relative cell proliferation rate of PANC-1 cells (PANC-1 cells; [7]): 161.2% | Relative cell proliferation rate of PANC-1 cells (PANC-1 cells; [8]): 253.7% | Relative cell proliferation rate of NHDF cells (NHDF cells; [6]): 83.0% | Relative cell proliferation rate of NHDF cells (NHDF cells; [7]): 104.6% | Relative cell proliferation rate of NHDF cells (NHDF cells; [8]): 116.6%

CC(C)C[C@H](N)C(=O)O [Leu, leucine, reference compound]
Tumor volume (HeLa cells [1]; [3]): 77.4 mm^3 | Tumor volume (HeLa cells [1]; 5 mg/kg intraperitoneally every day for two weeks starting day 7, 10 days since HeLa cell transplantation): 190.1 mm^3 | Tumor volume (HeLa cells [1]; 5 mg/kg intraperitoneally every day for two weeks starting day 7, 12 days since HeLa cell transplantation): 355.3 mm^3 | Tumor volume (HeLa cells [1]; [4]): 385.1 mm^3 | Tumor volume (HeLa cells [1]; 5 mg/kg intraperitoneally every day for two weeks starting day 7, 17 days since HeLa cell transplantation): 714.2 mm^3 | Tumor volume (HeLa cells [1]; 5 mg/kg intraperitoneally every day for two weeks starting day 7, 19 days since HeLa cell transplantation): 1094.6 mm^3 | Tumor volume (HeLa cells [1]; [5]): 1536.5 mm^3

CC(C)(F)C(N)C(=O)O (racemic) [Val(1F), 3-fluoro-DL-valine]
Relative cell proliferation rate of HeLa cells (HeLa cells [2]; [6]): 72.83% | Relative cell proliferation rate of HeLa cells (HeLa cells [2]; [7]): 118.0% | Relative cell proliferation rate of HeLa cells (HeLa cells [2]; [8]): 273.6% | Relative cell proliferation rate of PANC-1 cells (PANC-1 cells; [6]): 88.8% | Relative cell proliferation rate of PANC-1 cells (PANC-1 cells; [7]): 103.8% | Relative cell proliferation rate of PANC-1 cells (PANC-1 cells; [8]): 105.1% | Relative cell proliferation rate of PANC-1 cells (PANC-1 cells; [9]): about 100% | Relative cell proliferation rate of NHDF cells (NHDF cells; [6]): 91.5% | Relative cell proliferation rate of NHDF cells (NHDF cells; [7]): 70.4% | Relative cell proliferation rate of NHDF cells (NHDF cells; [8]): 110.5% | Relative cell proliferation rate of NHDF cells (NHDF cells; [9]): lower than the relative cell proliferation rate observed for the Val-removed medium

CC(C)(F)CC[C@H](N)C(=O)O [5F-NorLeu, 5-fluoro-5-methyl-norleucine]
Tumor volume (HeLa cells [1]; administration intraperitoneally every day starting day 11, 11 days since HeLa cell transplantation): 230.6 mm^3 | Tumor volume (HeLa cells [1]; administration intraperitoneally every day starting day 11, 13 days since HeLa cell transplantation): 373.9 mm^3 | Tumor volume (HeLa cells [1]; administration intraperitoneally every day starting day 11, 15 days since HeLa cell transplantation): 684.9 mm^3 | Tumor volume (HeLa cells [1]; administration intraperitoneally every day starting day 11, 18 days since HeLa cell transplantation): 823.5 mm^3 | Tumor volume (HeLa cells [1]; administration intraperitoneally every day starting day 11, 20 days since HeLa cell transplantation): 1291.7 mm^3 | Tumor volume (HeLa cells [1]; administration intraperitoneally every day starting day 11, 22 days since HeLa cell transplantation): 1951.5 mm^3

NC(C(=O)O)C(C(F)(F)F)C(F)(F)F (racemic) [Val(6F), 4,4,4,4′,4′,4′-hexafluoro-DL-valine]
Relative cell proliferation rate of HeLa cells (HeLa cells [2]; [6]): 88.1% | Relative cell proliferation rate of HeLa cells (HeLa cells [2]; [7]): 93.7% | Relative cell proliferation rate of HeLa cells (HeLa cells [2]; [8]): 67.6% | Relative cell proliferation rate of HeLa cells (HeLa cells [2]; [10]): less than 100% | Relative cell proliferation rate of PANC-1 cells (PANC-1 cells; [6]): 104.3% | Relative cell proliferation rate of PANC-1 cells (PANC-1 cells; [7]): 133.4% | Relative cell proliferation rate of PANC-1 cells (PANC-1 cells; [8]): 141.3% | Relative cell proliferation rate of NHDF cells (NHDF cells; [6]): 109.8% | Relative cell proliferation rate of NHDF cells (NHDF cells; [7]): 104.4% | Relative cell proliferation rate of NHDF cells (NHDF cells; [8]): 125.2% | Relative cell proliferation rate of NHDF cells (NHDF cells; [10]): lower than the relative cell proliferation rate observed for the Val-removed medium

Cl.NC(CC(C(F)(F)F)C(F)(F)F)C(=O)O (stereo not drawn) [Leu(6F), 2-amino-5,5,5-trifluoro-4-(trifluoromethyl) pentanoic acid hydrochloride]
Relative cell proliferation rate of HeLa cells (HeLa cells [2]; [11]): 137.3% | Relative cell proliferation rate of HeLa cells (HeLa cells [2]; [12]): 264.0% | Relative cell proliferation rate of HeLa cells (HeLa cells [2]; [13]): 472.5% | Relative cell proliferation rate of PANC-1 cells (PANC-1 cells; [11]): 75.5% | Relative cell proliferation rate of PANC-1 cells (PANC-1 cells; [12]): 96.5% | Relative cell proliferation rate of PANC-1 cells (PANC-1 cells; [13]): 193.6% | Relative cell proliferation rate of PANC-1 cells (PANC-1 cells; Leu-removed medium + 0.8 mM amino acid, culture time 72 h, listed as hexafluoroleucine, hydrochloride): ~200% | Relative cell proliferation rate of NHDF cells (NHDF cells; [11]): 104.7% | Relative cell proliferation rate of NHDF cells (NHDF cells; [12]): 130.1% | Relative cell proliferation rate of NHDF cells (NHDF cells; [13]): 179.1%

CC(C)(F)C[C@H](N)C(=O)O [Leu(1F), 4-fluoro-L-leucine]
Relative cell proliferation rate of HeLa cells (HeLa cells [2]; [11]): 82.3% | Relative cell proliferation rate of HeLa cells (HeLa cells [2]; [12]): 90.6% | Relative cell proliferation rate of HeLa cells (HeLa cells [2]; [14]): 82.0% | Relative cell proliferation rate of PANC-1 cells (PANC-1 cells; [11]): 67.6% | Relative cell proliferation rate of PANC-1 cells (PANC-1 cells; [12]): 47.9% | Relative cell proliferation rate of PANC-1 cells (PANC-1 cells; [14]): 40.9% | Relative cell proliferation rate of NHDF cells (NHDF cells; [11]): 92.0% | Relative cell proliferation rate of NHDF cells (NHDF cells; [12]): 66.4% | Relative cell proliferation rate of NHDF cells (NHDF cells; [14]): 87.7% | Relative cell proliferation rate of NHDF cells (NHDF cells; Leu-removed medium + 0.8 mM amino acid, culture time 72 h, listed as monofluoroleucine): less than 100%
